Experimental data: patent US20230399358A1, “IMMUNOGLOBULIN PURIFICATION PEPTIDES AND THEIR USE” (North Carolina State University, priority 2019, published 2023)

Legend:
human IgG = type: binding; conditions: peptide on Toyopearl AF-amino-650M, 30 min, room temperature
Method: Measurement of IgG binding by peptide-based chromatographic adsorbents: For initial studies, 35 mg of MWRGWQ (SEQ ID NO:2)-Toyopearl, RHLGWF (SEQ ID NO:3)-Toyopearl, WQRHGI (SEQ ID NO:1)-Toyopearl, GWLHQR (SEQ ID NO:4)-Toyopearl, and HWRGWV (SEQ ID NO:18)-Toyopearl (control) resins were equilibrated in PBS pH 7.4, reaching a swollen volume of 0.1 mL, and subsequently incubated with 1 mg/mL IgG in 0.205 mg/mL CHO cell culture supernatant for 30 minutes. The resins were subsequently washed several times with PBS to remove non-specifically bound proteins. Elution was performed with 100 mM glycine buffer pH 2.5. Flowthrough and elution fractions were collected and analyzed by SDS PAGE under reducing conditions. The resulting gels were stained with Coomassie staining. Further, 25 mg of the adsorbents MWRGWQ (SEQ ID NO:2)-Toyopearl, NIFRGWQ (SEQ ID NO:21)-Toyopearl, MWRAWQ (SEQ ID NO:5)-Toyopearl, MWRGFQ (SEQ ID NO:7)-Toyopearl, MWRGWN (SEQ ID NO:22)-Toyopearl, (NorL) WRGWQ (SEQ ID NO:23)-Toyopearl, MGRGWQ (SEQ ID NO:24)-Toyopearl, MWRWQ (SEQ ID NO:6)-Toyopearl, MWRGGQ (SEQ ID NO:26)-Toyopearl, GWRGWQ (SEQ ID NO:8)-Toyopearl, WQRHGI (SEQ ID NO:1)-Toyopearl, WNRHGI (SEQ ID NO:12)-Toyopearl, WQRAGI (SEQ ID NO:28)-Toyopearl, WQRHAI (SEQ ID NO:11)-Toyopearl, WQRHGL (SEQ ID NO:9)-Toyopearl, FQRHGI (SEQ ID NO:29)-Toyopearl, and WQRHGV (SEQ ID NO:10)-Toyopearl resins were equilibrated in PBS pH 7.4, reaching a swollen volume of 0.1 mL, and subsequently incubated with 1 mg/mL IgG in PBS at pH 7.4 for 30 minutes. The amount of unbound IgG in the supernatant samples was quantified by Bradford assay and utilized to determine the IgG binding % by the peptide variants.
A limited library of residue-by-residue changes confirmed the importance of each residue in peptides WQRHGI (SEQ ID NO:1) and MWRGWQ (SEQ ID NO:2) in reducing the binding energy between the peptide and the IgG target. […] This was accomplished by designing and constructing an ensemble of 20 variants of peptides WQRHGI (SEQ ID NO:1) and MWRGWQ (SEQ ID NO:2). Selected residues in positions 1-6 were mutated. The peptide variants were synthesized directly on Toyopearl AF-amino-650M resin via Fmoc/tBu chemistry. The resulting adsorbents were incubated with a solution of human IgG at 2 mg/mL at a ratio of 1 mL of resin per 3.5 mL of solution for 30 min at room temperature. The residual concentration of IgG in solution was determined by Bradford concentration assay of the supernatants and utilized to calculate the amounts of bound IgG per volume of resin; Table 7 reports the % binding, defined as mg IgG bound by variant/mg IgG bound by original sequence (either WQRHGI (SEQ ID NO:1) or MWRGWQ (SEQ ID NO:2))×100%, of each sequence variant.

human polyclonal IgG = assay: Static binding isotherm on WorkBeads adsorbents, Langmuir fit; conditions: WorkBeads adsorbent, PBS pH 7.4, Langmuir fit
Text: Measurements of static and dynamic binding capacity: […] NO:2)-Workbeads and […] NO:30)-Workbeads were characterized in terms of static and dynamic binding capacity respectively by batch and breakthrough binding studies. The peptides […] NO:3) and […] NO:4) were not selected for further studies due to their low selectivity and low yield, respectively. […] The resin was pelleted by centrifugation and the supernatant removed. […] The resulting fractions were combined and analyzed by BCA assay to quantify the unbound IgG and, accordingly, the amount of IgG adsorbed. The resulting data were fit to a Langmuir isotherm to determine the values of Qmax and KD(Solid). […] The amount of unbound IgG was determined by analyzing the supernatants via Micro BCA Protein Assay Kit. The amount of bound IgG per volume of resin (Q) was determined by mass balance and plotted against the corresponding equilibrium concentration of unbound IgG in solution (CIgG). The data were fit to a Langmuir isotherm model, thus providing a value of maximum binding capacity (Qmax) and dissociation constant (KD).

- % Binding (mg IgG bound by variant/mg IgG bound by original sequence × 100%) (human IgG): 100.00%
- Qmax (human polyclonal IgG): 52.6 mg IgG/mL resin
- Kd (human polyclonal IgG; read-out: KD(Solid)): 3.2 µM
Substance: WQRHGI
